Laboratory results: patent US20250051346A1 (priority 2021, published 2025)
pEC50, pIC50: −log10 of the molar value. Where two headings read alike, the source gives them in different places.

Key:
[1] = biological target: T1, 5-HT2A (Homo sapiens, UniProt P28223); assay: Serotonin 5-HT2A in vitro cellular IPOne agonism assay; format: cell-based; design: host or cells: CHO-K1; conditions: CHO-K1 cells, 60 min
Procedure: Serotonin 5-HT2A In Vitro Cellular IPOne Agonism Assay. The 5-HT2A IPOne HTRF assay was performed at Epics Therapeutics S.A. (Belgium, FAST-0505I) using conventional methods. Briefly, CHO-K1 cells expressing human recombinant 5-HT2A receptor grown to mid-log phase in culture media without antibiotics were detached with PBS-EDTA, centrifuged, and resuspended in medium without antibiotics buffer. 20,000 cells are distributed in a 96 well plate and incubated overnight at 37° C. with 5% CO2.
For agonist testing, the medium was removed and 20 μl of assay buffer plus 20 μl of test compound or reference agonist were added in each well. The plate was incubated for 60 min. at 37° C. with 5% CO2.
After addition of the lysis buffer containing IP1-d2 and anti-IP1 cryptate detection reagents, plates were incubated 1-hour at room temperature, and fluorescence ratios were measured according to the manufacturer specification, with the HTRF kit.

[2] = biological target: T1, 5-HT2A; assay: Serotonin 5-HT2A in vitro radioligand binding competition assay; design: purchased Epics Therapeutics S.A. (Belgium), contract assay FAST-0505B; host or cells: membrane extracts; conditions: [3H]-DOI radiotracer, membrane extracts, read-out: 5HT2A R[…] ACTIVITY
Procedure: Serotonin 5-HT2A In Vitro Radioligand Binding Competition Assay. The 5-HT2A radioligand binding competition assay was performed at Epics Therapeutics S.A. (Belgium, FAST-0505B) using conventional methods. Briefly, competition binding was performed in duplicate in the wells of a 96 well plate (Master Block, Greiner, 786201) containing binding buffer (optimized for each receptor), membrane extracts (amount of protein/well optimized for each receptor), radiotracer [^3H]-DOI (final concentration optimized for each receptor) and test compound. Nonspecific binding was determined by co-incubation with 200-fold excess of cold competitor. The samples were incubated in a final volume of 0.1 ml at a temperature and for a duration optimized for each receptor and then filtered over filter plates. Filters were washed six times with 0.5 ml of ice-cold washing buffer (optimized for each receptor) and 50 μl of Microscint 20 (Packard) were added in each well. The plates were incubated 15 min on an orbital shaker and then counted with a TopCount™ for 1 min/well.

T1 sequence (P28223 whole entry): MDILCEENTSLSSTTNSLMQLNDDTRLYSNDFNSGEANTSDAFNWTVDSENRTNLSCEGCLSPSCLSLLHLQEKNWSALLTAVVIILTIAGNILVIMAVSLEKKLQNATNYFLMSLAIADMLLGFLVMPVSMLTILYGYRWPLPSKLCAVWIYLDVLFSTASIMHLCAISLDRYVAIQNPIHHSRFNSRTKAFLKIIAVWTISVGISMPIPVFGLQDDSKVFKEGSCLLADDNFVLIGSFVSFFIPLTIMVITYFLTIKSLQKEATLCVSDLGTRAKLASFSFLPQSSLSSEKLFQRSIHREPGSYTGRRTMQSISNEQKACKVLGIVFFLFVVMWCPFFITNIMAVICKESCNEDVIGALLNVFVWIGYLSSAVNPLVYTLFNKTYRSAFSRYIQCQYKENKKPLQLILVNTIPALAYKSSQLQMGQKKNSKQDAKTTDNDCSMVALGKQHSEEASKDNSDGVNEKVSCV

SMILES	pEC50 ([1]; benzothiophenes)	pIC50 ([2]; benzothiophenes)	pEC50 ([1]; benzofurans)	pIC50 ([2]; benzofurans)
Fc1ccc2c3c(sc2c1)CCNCC3 [Compound 46, 8-fluoro-2,3,4,5-tetrahydro-1H-benzo[4,5]thieno[2,3-d]azepine]	> 8.00	7.00 to 8.00	–	–
CN1CCCc2oc3cc(OC(F)(F)F)ccc3c2C1 [Compound 53, 2-methyl-8-(trifluoromethoxy)-2,3,4,5-tetrahydro-1H-benzofuro[3,2-c]azepine]	–	–	< 5.00	< 5.00
CN1CCCc2oc3cccc(F)c3c2C1 [Compound 4, 10-fluoro-2-methyl-2,3,4,5-tetrahydro-1H-benzofuro[3,2-c]azepine]	–	–	< 5.00	5.00 to 6.00
c1ccc2c3c(oc2c1)CCCNC3 [Compound 22, 2,3,4,5-tetrahydro-1H-benzofuro[3,2-c]azepine]	–	–	< 5.00	< 5.00
COc1ccc2c3c(sc2c1)CCN(CC(F)(F)F)CC3 [Compound 70, 8-methoxy-3-(2,2,2-trifluoroethyl)-2,3,4,5-tetrahydro-1H-benzo[4,5]thieno[2,3-d]azepine]	< 5.00	< 5.00	–	–
COc1ccc2c3c(oc2c1)CCN(C)CC3 [Compound 26, 8-methoxy-3-methyl-2,3,4,5-tetrahydro-1H-benzofuro[2,3-d]azepine]	–	–	< 5.00	5.00 to 6.00
CN1CCCc2oc3cc(C(F)(F)F)ccc3c2C1 [Compound 52, 2-methyl-8-(trifluoromethyl)-2,3,4,5-tetrahydro-1H-benzofuro[3,2-c]azepine]	–	–	< 5.00	5.00 to 6.00
CN1CCCc2oc3ccccc3c2C1 [Compound 21, 2-methyl-2,3,4,5-tetrahydro-1H-benzofuro[3,2-c]azepine]	–	–	< 5.00	< 5.00
COc1ccc2c3c(oc2c1)CCCN(C)C3 [Compound 17, 8-methoxy-2-methyl-2,3,4,5-tetrahydro-1H-benzofuro[3,2-c]azepine]	–	–	< 5.00	< 5.00
FC(F)(F)c1ccc2c3c(oc2c1)CCNCC3 [Compound 43, 8-(trifluoromethyl)-2,3,4,5-tetrahydro-1H-benzofuro[2,3-d]azepine]	–	–	6.00 to 7.00	5.00 to 6.00
FC(F)(F)Oc1cccc2sc3c(c12)CCN(C1CCC1)CC3 [Compound 68, 3-cyclobutyl-10-(trifluoromethoxy)-2,3,4,5-tetrahydro-1H-benzo[4,5]thieno[2,3-d]azepine]	5.00 to 6.00	5.00 to 6.00	–	–
FC(F)(F)c1ccc2c3c(oc2c1)CCCNC3 [Compound 48, 8-(trifluoromethyl)-2,3,4,5-tetrahydro-1H-benzofuro[3,2-c]azepine]	–	–	5.00 to 6.00	5.00 to 6.00
COc1ccc2c3c(oc2c1)CCCN(CC(F)(F)F)C3 [Compound 11, 8-methoxy-2-(2,2,2-trifluoroethyl)-2,3,4,5-tetrahydro-1H-benzofuro[3,2-c]azepine]	–	–	< 5.00	< 5.00
FC(F)(F)CN1CCc2sc3ccccc3c2CC1 [Compound 69, 3-(2,2,2-trifluoroethyl)-2,3,4,5-tetrahydro-1H-benzo[4,5]thieno[2,3-d]azepine]	< 5.00	< 5.00	–	–
CN1CCc2oc3cc(OCc4ccccc4)ccc3c2CC1 [Compound 41, 8-(benzyloxy)-3-methyl-2,3,4,5-tetrahydro-1H-benzofuro[2,3-d]azepine]	–	–	< 5.00	6.00 to 7.00
c1ccc(COc2ccc3c4c(sc3c2)CCNCC4)cc1 [Compound 77, 8-(benzyloxy)-2,3,4,5-tetrahydro-1H-benzo[4,5]thieno[2,3-d]azepine]	< 5.00	5.00 to 6.00	–	–
COc1ccc2c3c(oc2c1)CCCNC3 [Compound 19, 8-methoxy-2,3,4,5-tetrahydro-1H-benzofuro[3,2-c]azepine]	–	–	< 5.00	< 5.00
c1ccc(COc2cccc3oc4c(c23)CNCCC4)cc1 [Compound 51, 10-(benzyloxy)-2,3,4,5-tetrahydro-1H-benzofuro[3,2-c]azepine]	–	–	< 5.00	5.00 to 6.00
Fc1cccc2oc3c(c12)CCN(CC(F)(F)F)CC3 [Compound 8, 10-fluoro-3-(2,2,2-trifluoroethyl)-2,3,4,5-tetrahydro-1H-benzofuro[2,3-d]azepine]	–	–	5.00 to 6.00	< 5.00
CN1CCc2oc3cccc(F)c3c2CC1 [Compound 3, 10-fluoro-3-methyl-2,3,4,5-tetrahydro-1H-benzofuro[2,3-d]azepine]	–	–	6.00 to 7.00	6.00 to 7.00

SMILES	pEC50 ([1]; benzothiophenes)	pIC50 ([2]; benzothiophenes)	pEC50 ([1]; benzofurans)	pIC50 ([2]; benzofurans)
CN1CCCc2oc3cccc(OCc4ccccc4)c3c2C1 [Compound 55, 10-(benzyloxy)-2-methyl-2,3,4,5-tetrahydro-1H-benzofuro[3,2-c]azepine]	–	–	< 5.00	7.00 to 8.00
COc1cccc2oc3c(c12)CCNCC3 [Compound 16, 10-methoxy-2,3,4,5-tetrahydro-1H-benzofuro[2,3-d]azepine]	–	–	7.00 to 8.00	6.00 to 7.00
COc1ccc2c3c(oc2c1)CCCN(C1CCC1)C3 [Compound 12, 2-cyclobutyl-8-methoxy-2,3,4,5-tetrahydro-1H-benzofuro[3,2-c]azepine]	–	–	< 5.00	< 5.00
COc1ccc2c3c(sc2c1)CCN(C1CCC1)CC3 [Compound 74, 3-cyclobutyl-8-methoxy-2,3,4,5-tetrahydro-1H-benzo[4,5]thieno[2,3-d]azepine]	< 5.00	< 5.00	–	–
COc1ccc2c3c(oc2c1)CCNCC3 [Compound 27, 8-methoxy-2,3,4,5-tetrahydro-1H-benzofuro[2,3-d]azepine]	–	–	5.00 to 6.00	5.00 to 6.00
FC(F)(F)Oc1ccc2c3c(sc2c1)CCNCC3 [Compound 66, 8-(trifluoromethoxy)-2,3,4,5-tetrahydro-1H-benzo[4,5]thieno[2,3-d]azepine]	6.00 to 7.00	6.00 to 7.00	–	–
FC(F)(F)Oc1ccc2c3c(sc2c1)CCN(C1CCC1)CC3 [Compound 76, 3-cyclobutyl-8-(trifluoromethoxy)-2,3,4,5-tetrahydro-1H-benzo[4,5]thieno[2,3-d]azepine]	< 5.00	5.00 to 6.00	–	–
Fc1cccc2oc3c(c12)CN(C1CCC1)CCC3 [Compound 1, 2-cyclobutyl-10-fluoro-2,3,4,5-tetrahydro-1H-benzofuro[3,2-c]azepine]	–	–	< 5.00	< 5.00
COc1cccc2oc3c(c12)CCN(C1CCC1)CC3 [Compound 15, 3-cyclobutyl-10-methoxy-2,3,4,5-tetrahydro-1H-benzofuro[2,3-d]azepine]	–	–	5.00 to 6.00	5.00 to 6.00
Fc1ccc2c3c(oc2c1)CCCNC3 [Compound 6, 8-fluoro-2,3,4,5-tetrahydro-1H-benzofuro[3,2-c]azepine]	–	–	5.00 to 6.00	< 5.00
c1ccc2c3c(oc2c1)CCNCC3 [Compound 31, 2,3,4,5-tetrahydro-1H-benzofuro[2,3-d]azepine]	–	–	6.00 to 7.00	6.00 to 7.00
Fc1ccc2c3c(sc2c1)CCN(CC(F)(F)F)CC3 [Compound 71, 8-fluoro-3-(2,2,2-trifluoroethyl)-2,3,4,5-tetrahydro-1H-benzo[4,5]thieno[2,3-d]azepine]	< 5.00	< 5.00	–	–
Fc1ccc2c3c(oc2c1)CCNCC3 [Compound 24, 8-fluoro-2,3,4,5-tetrahydro-1H-benzofuro[2,3-d]azepine]	–	–	7.00 to 8.00	6.00 to 7.00
FC(F)(F)CN1CCc2oc3ccccc3c2CC1 [Compound 29, 3-(2,2,2-trifluoroethyl)-2,3,4,5-tetrahydro-1H-benzofuro[2,3-d]azepine]	–	–	< 5.00	< 5.00
Oc1ccc2c3c(sc2c1)CCNCC3 [Compound 80, 2,3,4,5-tetrahydro-1H-benzo[4,5]thieno[2,3-d]azepin-8-ol]	6.00 to 7.00	7.00 to 8.00	–	–
c1ccc2c3c(sc2c1)CCNCC3 [Compound 65, 2,3,4,5-tetrahydro-1H-benzo[4,5]thieno[2,3-d]azepine]	6.00 to 7.00	7.00 to 8.00	–	–
FC(F)(F)Oc1cccc2sc3c(c12)CCNCC3 [Compound 67, 10-(trifluoromethoxy)-2,3,4,5-tetrahydro-1H-benzo[4,5]thieno[2,3-d]azepine]	7.00 to 8.00	7.00 to 8.00	–	–
Fc1cccc2oc3c(c12)CCN(C1CCC1)CC3 [Compound 2, 3-cyclobutyl-10-fluoro-2,3,4,5-tetrahydro-1H-benzofuro[2,3-d]azepine]	–	–	5.00 to 6.00	5.00 to 6.00
c1ccc(COc2ccc3c4c(oc3c2)CCNCC4)cc1 [Compound 45, 8-(benzyloxy)-2,3,4,5-tetrahydro-1H-benzofuro[2,3-d]azepine]	–	–	5.00 to 6.00	5.00 to 6.00
